Source: the supplement of paper PMC10307832

What was measured:
Experiment in all cases: relative viability (nuclei count vs DMSO), 5 days (fraction); higher = more cells survive
Axitinib + Palbociclib = compound: CNC(=O)c1ccccc1Sc1ccc2c(/C=C/c3ccccn3)n[nH]c2c1 [Axitinib] + CC(=O)c1c(C)c2cnc(Nc3ccc(N4CCNCC4)cn3)nc2n(C2CCCC2)c1=O [Palbociclib] (partner 0.5 µM)
Procedure, shortened: (§1)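 Values are medians from duplicate plates. Each reflects relative viability, defined as the nuclei count of treated wells over that of vehicle wells. Lung cancer cell lines in 1536-well plates were pin-tool dosed one day after seeding with one drug alone or with a fixed anchor-drug dose plus five library-drug doses (not always all listed) in √10 steps, then fixed, stained and imaged at 4× after 5 days.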

Bemcentinib + Luminespib = compound: Nc1nc(Nc2ccc3c(c2)CC[C@@H](N2CCCC2)CC3)nn1-c1cc2c(nn1)-c1ccccc1CCC2 [Bemcentinib] + CCNC(=O)c1noc(-c2cc(C(C)C)c(O)cc2O)c1-c1ccc(CN2CCOCC2)cc1 [Luminespib] (partner 0.01 µM)
Procedure, shortened: as §1

[1] = compound: CC1=CC=C(C=C1)C(=O)CN2C3=C(CCCC3)SC2=N [Pifithrin_alpha] + O=C(c1cc(Cc2n[nH]c(=O)c3ccccc23)ccc1F)N1CCN(C(=O)C2CC2)CC1 [Olaparib] (partner 8 µM)
Procedure, shortened: as §1

[2] = compound: CC1=CC=C(C=C1)C(=O)CN2C3=C(CCCC3)SC2=N [Pifithrin_alpha] + Cc1nc(NC(=O)N2CCC[C@H]2C(N)=O)sc1-c1ccnc(C(C)(C)C(F)(F)F)c1 [Alpelisib] (partner 2 µM)
Procedure, shortened: as §1

Cell Line NCI-H650 has a relative viability (Axitinib + Palbociclib; first compound 0.005 µM) of 0.327, a relative viability (Axitinib + Palbociclib; first compound 0.01581 µM) of 0.342 and a relative viability (Axitinib + Palbociclib; first compound 0.05 µM) of 0.312. The relative viability (Axitinib + Palbociclib; first compound 0.1581 µM) was 0.321, the relative viability (Axitinib + Palbociclib; first compound 0.5 µM) was 0.325 and the relative viability (Bemcentinib + Luminespib; first compound 0.04 µM) was 0.8. The relative viability (Bemcentinib + Luminespib; first compound 0.1265 µM) was 0.963, the relative viability (Bemcentinib + Luminespib; first compound 0.4 µM) was 0.922 and the relative viability (Bemcentinib + Luminespib; first compound 1.265 µM) was 0.749. It also gave a relative viability (Bemcentinib + Luminespib; first compound 4 µM) of 0.729, a relative viability ([1]; first compound 3.162 µM) of 0.398 and a relative viability ([1]; first compound 10 µM) of 0.339. The relative viability ([1]; first compound 31.62 µM) was 0.221, the relative viability ([1]; first compound 100 µM) was 0.355 and the relative viability ([2]; first compound 3.162 µM) was 1.12. The relative viability ([2]; first compound 10 µM) was 1.13, the relative viability ([2]; first compound 31.62 µM) was 0.755 and the relative viability ([2]; first compound 100 µM) was 1.09.
